Measurements as given in ChEMBL document CHEMBL5215011, “Isolation and Structure Elucidation of Compounds from Sesamum alatum and Their Antiproliferative Activity against Multiple Myeloma Cells” (J Nat Prod, 2022).

Key:
Format in all cases: functional, cell-based
RPMI-8226 = experiment: Antiproliferative activity against human RPMI-8226 cells assessed as inhibition of cell proliferation incubated for 72 hrs by XTT assay; conditions: RPMI-8226, 72 h
MM1.S = experiment: Antiproliferative activity against human MM1.S cells assessed as inhibition of cell proliferation incubated for 72 hrs by XTT assay
[1] = Antiproliferative activity against human MM1.R cells assessed as inhibition of cell proliferation incubated for 72 hrs by XTT assay; conditions: MM.1R

Structure (SMILES)	IC50 (RPMI-8226) [µM]	IC50 (MM1.S) [µM]	IC50 [1] [µM]
CC(C)=CC[C@@]12O[C@@H]1C(=O)c1c(O)ccc(O)c1C2=O	0.6	0.7	0.9
CC(C)=CC[C@@]12O[C@@H]1C(=O)c1c(O)ccc(O[C@@H]3O[C@H](CO)[C@@H](O)[C@H](O)[C@H]3O)c1C2=O	9.5	4.8	3.6
CC(C)=CCC1=C(Cl)C(=O)c2c(O)ccc(O)c2C1=O	12.9		
CC(C)(O)/C=C\C(O)=C1C(=O)c2c(O)ccc(O)c2C1=O	9.6	14.7	6.1
CC(C)=CC[C@@H]1C(=O)c2c(O)ccc(O)c2[C@@H]1O	27.5		
CC(C)=CC[C@@]12O[C@@H]1C(O)c1c(O)ccc(O)c1C2=O (stereo partly drawn)	18.6		
COC1=CC(=O)C=C(OC)C1=O [2,6-DIMETHOXYQUINONE]	10.8	1.1	3
CC(C)C[C@H](NC(=O)[C@H](Cc1ccccc1)NC(=O)c1cnccn1)B(O)O [BORTEZOMIB]	0.0056	0.0032	0.0047
